According to patent US20230085307A1, “PYRIDAZINONE COMPOUND AND HERBICIDE” (NISSAN CHEMICAL CORPORATION, priority 2019, published 2023):

How the values were obtained:
late watergrass = assay: Test Example 1: herbicidal activity, application before weed generation under submerged conditions (Table 16, symbol A); assay type: in vivo, late watergrass (Echinochloa oryzicola); settings: amount of applied herbicide 320 g/ha
Outline: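 Submerged Wagner pots (alluvial soil, 4 cm water) sown with weed seeds and planted with 2.5-leaf rice seedlings; emulsifiable concentrate diluted in water applied to water surface on sowing day. Held in greenhouse at 25-30 °C; injury scored 0-5 by herbicidal rate after three weeks.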

oval-leafed pondweed = assay: Test Example 2: herbicidal activity, application during weed generation under submerged conditions (Table 17, symbol C); assay type: in vivo, oval-leafed pondweed (Monochoria vaginalis); settings: AAH 320 g/ha; application during weed generation, submerged conditions
Outline: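 In this pot test, flooded alluvial soil (water depth 4 cm) holds all three species sown as a mixture. Once seedlings have one to two leaves, the compound's emulsion, thinned with water to the intended dose, is poured on the water; grading follows after three weeks on the earlier criteria.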

Chinese sprangletop = assay: Test Example 3: herbicidal effect by foliage application, Wagner pot (Table 18, symbol D); assay type: in vivo, chinese sprangletop (Leptochloa chinensis); settings: for herbicidal effect on Chinese sprangletop (D): 320 g/ha
Outline: (§1)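 Plants were sown in alluvial soil held under 0.1–0.5 cm standing water and grown 14 days in a greenhouse at 25–30 °C. An emulsifiable formulation, water-diluted to the set dose, was then sprayed onto the foliage, and effects were scored three weeks later using previously defined criteria.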

rice flat sedge = assay: Test Example 3: herbicidal effect by foliage application, Wagner pot (Table 18, symbol E); assay type: in vivo, rice flat sedge (Cyperus iria); settings: for herbicidal effect on rice flat sedge (E): 320 g/ha
Outline: as §1

green foxtail = assay: Test Example 4: herbicidal effect by soil treatment (Table 19, symbol G); assay type: in vivo, green foxtail (Setaria viridis); settings: amount of applied herbicide 320 g/ha
Outline: (§2)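 Three weeks of greenhouse growth at 25° C. to 30° C. followed a uniform surface spray of water-diluted emulsion at a predetermined herbicide amount. Seeds had been sown beforehand under about 1.5 cm of sterilized diluvial soil. Grading followed criteria set out in an earlier test.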

wild oat = assay: Test Example 4: herbicidal effect by soil treatment (Table 19, symbol I); assay type: in vivo, wild oat (Avena fatua); settings: amount of applied herbicide 320 g/ha
Outline: as §2

Italian ryegrass [1] = assay: Test Example 4: herbicidal effect by soil treatment (Table 19, symbol K); assay type: in vivo, Italian ryegrass (Lolium multiflorum); settings: amount of applied herbicide 320 g/ha
Outline: as §2

windgrass [2] = assay: Test Example 4: herbicidal effect by soil treatment (Table 19, symbol L); assay type: in vivo, windgrass (Apera spica-venti); settings: amount of applied herbicide 320 g/ha
Outline: as §2

velvetleaf [3] = assay: Test Example 4: herbicidal effect by soil treatment (Table 19, symbol M); assay type: in vivo, velvetleaf (Abutilon theophrasti); settings: amount of applied herbicide 320 g/ha
Outline: as §2

lambsquarters = assay: Test Example 4: herbicidal effect by soil treatment (Table 19, symbol O); assay type: in vivo, lambsquarters (Chenopodium album); settings: amount of applied herbicide 320 g/ha
Outline: as §2

false cleavers = assay: Test Example 4: herbicidal effect by soil treatment (Table 19, symbol Q); assay type: in vivo, false cleavers (Galium spurium); settings: amount of applied herbicide 320 g/ha
Outline: as §2

persian speedwell = assay: Test Example 4: herbicidal effect by soil treatment (Table 19, symbol R); assay type: in vivo, Persian speedwell (Veronica persica); settings: amount of applied herbicide 320 g/ha
Outline: as §2

barnyard grass = assay: Test Example 5: herbicidal effect by foliage application, plastic box (Table 20, symbol H); assay type: in vivo, barnyard grass (Echinochloa crus-galli); settings: foliage application, 320 g/ha, three weeks after application
Outline: (§3)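 Plants sown in sterilized diluvial soil and grown 14 days in a greenhouse at 25° C to 30° C, then sprayed on the foliage with the compound's emulsion diluted in water to a predetermined herbicide amount. Injury to weeds and crops scored three weeks after application on a visual rating scale.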

Italian ryegrass [4] = assay: Test Example 5: herbicidal effect by foliage application, plastic box (Table 20, symbol K); assay type: in vivo, Italian ryegrass (Lolium multiflorum); settings: foliage application, 320 g/ha, three weeks after application
Outline: as §3

windgrass [5] = assay: Test Example 5: herbicidal effect by foliage application, plastic box (Table 20, symbol L); assay type: in vivo, windgrass (Apera spica-venti); settings: foliage application, 320 g/ha, three weeks after application
Outline: as §3

velvetleaf [6] = assay: Test Example 5: herbicidal effect by foliage application, plastic box (Table 20, symbol M); assay type: in vivo, velvetleaf (Abutilon theophrasti); settings: foliage application, 320 g/ha, three weeks after application
Outline: as §3

chickweed = assay: Test Example 5: herbicidal effect by foliage application, plastic box (Table 20, symbol P); assay type: in vivo, common chickweed (Stellaria media); settings: foliage application, 320 g/ha, three weeks after application
Outline: as §3

[7] = amount of applied herbicide 320 g/ha

Compound	Herbicidal effect, A: late watergrass (late watergrass)	herbicidal effect rating, C: oval-leafed pondweed (oval-leafed pondweed)	herbicidal effect on Chinese sprangletop (D) (Chinese sprangletop)	herbicidal effect on rice flat sedge (E) (rice flat sedge)	G: green foxtail, herbicidal effect grade (green foxtail)	I: wild oat, herbicidal effect grade (wild oat)	K: Italian ryegrass, herbicidal effect grade (Italian ryegrass [1])	L: windgrass, herbicidal effect grade (windgrass [2])	M: velvetleaf, herbicidal effect grade (velvetleaf [3])	O: lambsquarters, herbicidal effect grade (lambsquarters)	Q: false cleavers, herbicidal effect grade (false cleavers)	R: persian speedwell, herbicidal effect grade (persian speedwell)	H: barnyard grass, herbicidal effect grade (barnyard grass)	K: Italian ryegrass, herbicidal effect grade (Italian ryegrass [4])	L: windgrass, herbicidal effect grade (windgrass [5])	M: velvetleaf, herbicidal effect grade (velvetleaf [6])	P: chickweed, herbicidal effect grade (chickweed)	further results
CCOc1ccccc1-c1sc2cc(OC)ccc2c1-c1c(O)c(C)nn(CC)c1=O [3-085]	5 (Herbicidal rate of 90% or more (almost completely withered))	3 (Herbicidal rate of 40% or more and less than 70%)	0 (Herbicidal rate of 5% or less (almost no effect))	4 (Herbicidal rate of 70% or more and less than 90%)	3 (Herbicidal rate of 40% or more and less than 70%)	0 (Herbicidal rate of 5% or less (almost no effect))	0 (Herbicidal rate of 5% or less (almost no effect))	0 (Herbicidal rate of 5% or less (almost no effect))	0 (Herbicidal rate of 5% or less (almost no effect))	3 (Herbicidal rate of 40% or more and less than 70%)	0 (Herbicidal rate of 5% or less (almost no effect))	5 (Herbicidal rate of 90% or more (almost completely withered))	4 (Herbicidal rate of 70% or more and less than 90%)	0 (Herbicidal rate of 5% or less (almost no effect))	4 (Herbicidal rate of 70% or more and less than 90%)	5 (Herbicidal rate of 90% or more (almost completely withered))	5 (Herbicidal rate of 90% or more (almost completely withered))	
CCOc1ccccc1-c1sc2cc(F)ccc2c1-c1c(O)c(C)nn(C)c1=O [3-006]	5 (Herbicidal rate of 90% or more (almost completely withered))	5 (Herbicidal rate of 90% or more (almost completely withered))											5 (Herbicidal rate of 90% or more (almost completely withered))	5 (Herbicidal rate of 90% or more (almost completely withered))	5 (Herbicidal rate of 90% or more (almost completely withered))	5 (Herbicidal rate of 90% or more (almost completely withered))	5 (Herbicidal rate of 90% or more (almost completely withered))	herbicidal effect on D: Chinese sprangletop (Chinese sprangletop; [7]): 4 (Herbicidal rate of 70% or more and less than 90%); herbicidal effect on E: rice flat sedge (rice flat sedge; [7]): 5 (Herbicidal rate of 90% or more (almost completely withered)); herbicidal effect, G: green foxtail (green foxtail): 5 (Herbicidal rate of 90% or more (almost completely withered)); herbicidal effect, I: wild oat (wild oat): 4 (Herbicidal rate of 70% or more and less than 90%); herbicidal effect, K: Italian ryegrass (Italian ryegrass [1]): 2 (Herbicidal rate of 20% or more and less than 40%); herbicidal effect, L: windgrass (windgrass [2]): 5 (Herbicidal rate of 90% or more (almost completely withered)); herbicidal effect, M: velvetleaf (velvetleaf [3]): 4 (Herbicidal rate of 70% or more and less than 90%); herbicidal effect, O: lambsquarters (lambsquarters): 5 (Herbicidal rate of 90% or more (almost completely withered)); herbicidal effect, Q: false cleavers (false cleavers): 5 (Herbicidal rate of 90% or more (almost completely withered)); herbicidal effect, R: persian speedwell (persian speedwell): 5 (Herbicidal rate of 90% or more (almost completely withered))
CCOc1ccc(-c2sc3cc(OC)ccc3c2-c2c(O)c(C)nn(C)c2=O)cc1 [3-072]	1 (Herbicidal rate of 5% or more and less than 20%)	3 (Herbicidal rate of 40% or more and less than 70%)	3 (Herbicidal rate of 40% or more and less than 70%)	4 (Herbicidal rate of 70% or more and less than 90%)	0 (Herbicidal rate of 5% or less (almost no effect))	0 (Herbicidal rate of 5% or less (almost no effect))	0 (Herbicidal rate of 5% or less (almost no effect))	0 (Herbicidal rate of 5% or less (almost no effect))	0 (Herbicidal rate of 5% or less (almost no effect))	2 (Herbicidal rate of 20% or more and less than 40%)	1 (Herbicidal rate of 5% or more and less than 20%)	5 (Herbicidal rate of 90% or more (almost completely withered))	3 (Herbicidal rate of 40% or more and less than 70%)	4 (Herbicidal rate of 70% or more and less than 90%)	0 (Herbicidal rate of 5% or less (almost no effect))	3 (Herbicidal rate of 40% or more and less than 70%)	5 (Herbicidal rate of 90% or more (almost completely withered))	
CCCC(=O)Oc1c(C)nn(C)c(=O)c1-c1c(-c2ccc(OC)cc2)sc2cc(OCC)ccc12 [3-092]	0 (Herbicidal rate of 5% or less (almost no effect))	3 (Herbicidal rate of 40% or more and less than 70%)		4 (Herbicidal rate of 70% or more and less than 90%)	0 (Herbicidal rate of 5% or less (almost no effect))	0 (Herbicidal rate of 5% or less (almost no effect))	0 (Herbicidal rate of 5% or less (almost no effect))	0 (Herbicidal rate of 5% or less (almost no effect))	0 (Herbicidal rate of 5% or less (almost no effect))	4 (Herbicidal rate of 70% or more and less than 90%)	4 (Herbicidal rate of 70% or more and less than 90%)	5 (Herbicidal rate of 90% or more (almost completely withered))	0 (Herbicidal rate of 5% or less (almost no effect))	0 (Herbicidal rate of 5% or less (almost no effect))	0 (Herbicidal rate of 5% or less (almost no effect))	5 (Herbicidal rate of 90% or more (almost completely withered))	5 (Herbicidal rate of 90% or more (almost completely withered))	
